Where “and” joins values, the source holds several entries; their conditions need not be identical. Identical values can stand only once. Like-named read-outs stand apart in the source and are kept apart here.
Assays:
Format in all cases: cell-based
[1] = target: T1, CFTR ΔF508 mutant (Homo sapiens, UniProt P13569, DEL508-508); experiment: YFP-halide influx assay for the CFTR-ΔF508 mutation (96 well, CFBE41o- cells); conditions: read-out: EC50 measured by YFP-halide influx assay for the CFTR-ΔF508
T1 construct: expressed in transfected cells; host or cells: CFBE41o- (adenoviral transduction)
From the text: 6.1. YFP-Halide Influx Assay for the CFTR-ΔF508 Mutation
The YFP halide influx assay measures the functionality of the cystic fibrosis Transmembrane Conductance regulator (CFTR) channels in the cystic fibrosis bronchial epithelium cell line CFBE41o-. The assay is used to evaluate the capacity of compounds to increase the open probability of existing CFTR channels in the membrane. It makes use of the observation that the yellow fluorescent protein (YFP) variant YFP H148Q, I152L has its fluorescence substantially quenched by halide ions like Cl^− and I^−. (Galietta et al., 2001; Nagai et al., 2002)
For this purpose, CFBE410-cells are seeded in 96 well plates (6000 CFBE cells/well). One day after seeding, the CFBE cells are transduced with adenoviral vectors that direct the expression of the CFTR ΔF508 mutant and of the YFP reporter. Cells are incubated at 27° C., 5% CO2 for 24 hours so as to allow for the proper folding and migration to the membrane of the CFTR channel or treated with a CFTR modulator during 24 h at 37° C.
The […] quenching of fluorescence is recorded immediately after injection of I^− for 7 seconds. The capacity of a compound to increase the channel opening is directly correlated with the decrease in fluorescence, and is expressed as (1-(fluorescence after 7 seconds (F)/fluorescence before injection (F0))) and an EC50 can be derived from a (1−F/F0) vs compound concentration plot.

[2] = target: T2, CFTR G551D mutant (Homo sapiens, UniProt P13569, G551D); experiment: YFP-halide influx assay for the CFTR-G551D mutation (HEK293 cells); conditions: read-out: EC50 measured by YFP-halide influx assay for the CFTR-G551D
T2 construct: expressed in transfected cells; host or cells: HEK293 (reverse transfection with plasmids)
Outline: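 HEK293 cells reverse-transfected with CFTR G551D and halide-sensitive YFP, expressed 24 h at 37 °C. Iodide-induced fluorescence quench recorded for 7 s after I^− injection; response as 1−F/F0, EC50 from concentration plot.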

[3] = target: T3, CFTR ΔF508 (Homo sapiens, UniProt P13569, DEL508-508); experiment: TECC assay, primary bronchial epithelial cells from CF patients homozygous for CFTR ΔF508; conditions: for ΔIsc / Current increase: TECC assay; for Current increase: compound at 50 nM, difference between ΔIsc with compound and ΔIsc DMSO (baseline); for activity on the CFTR protein in TECC assay (ΔISC vs DMSO baseline): at 3 μM, or 50 nM, or 50/100/200 nM; for EC50: primary bronchial epithelial cells, CFTR ΔF508, several values in a cell = repeat determinations
T3 construct: host or cells: primary bronchial epithelial cells from CF patients homozygous for ΔF508, pre-treated with VX809
Procedure: 7.2.1. Primary Bronchial Epithelial Cells Protocol
The TECC (Tranepithelial Clamp Circuit, EP-design) assay measures the functionality of the cystic fibrosis Transmembrane Conductance regulator (CFTR) by measuring the short circuit current (ISC) generated over the basolateral and apical membrane of lung epithelial cells. In TECC the transepithelial potential PD and transepithelial resistance (Rt) are measured in an open circuit and transformed to ISC using Ohm's law. 24 wells can be measured simultaneously allowing a higher throughput compared to Ussing chambers.
For this purpose, bronchial epithelial cells isolated from CF patients homozygous for the CFTR ΔF508 mutation (hAEC-CF, Epithelix) are plated on type IV collagen-coated Transwell supports (Costar). Human airway epithelia are generated by provision of an air-liquid interface for 21 days to form well-differentiated polarized cultures that resemble in vivo pseudo-stratified ciliated epithelium (Fulcher et al., 2005). In the case of the homozygous ΔF508 CFTR samples, the differentiated cells are treated with 3 μM VX809 (2626 South Loop West, Suite 225, Houston, Tex. 77054 USA, Cat n#51565) to allow sufficient expression of properly folded CFTR protein on the membrane (48 hours basolateral treatment and 24 hours apical treatment), prior to electrophysiological recordings. […] G551D/ΔF508, differentiated cells are used as such for the recordings.
Information on the compounds can be retrieved on the homozygous ΔF508 CFTR samples looking at increased CFTR activity when compounds are added in an acute mode or in a chronic mode. On G551D/ΔF508 CFTR heterozygous samples compounds are added in an acute mode to the differentiated cells.
For the acute mode, for electrophysiological recording, the human airway epithelia are mounted in the TECC heating plate for electrophysiological measurement and kept at 37° C. The epithelia are bathed in a NaCl-Ringer solution (120 mM NaCl, 25 mM NaHCO3, 1.2 mM CaCl2, 1.2 mM MgCl2, 0.8 mM KH2PO4, 0.8 mM K2HPO4, pH 7.4, 5 mM glucose) on both the basolateral and apical sides. Apical amiloride is used to inhibit the endogenous ENaC currents while forkolin is applied on both apical and basolateral side to stimulate CFTR. After forskolin triggering, compounds are added on both sides to test their potential for increasing CFTR gating. Measurements are done during a 20 minute timeframe with recordings every 2 minutes. The increase in ISC is used as a measure for the increased CFTR activity, EC50 values can be generated by measuring impact of different concentrations of compound on ISC on primary cells, for this purpose each transwell is treated with a different compound concentration. Inh-172, an inhibitor specific for CFTR, is used to test the specificity of the tested compounds.
For the chronic mode, the differentiated cells are treated with 3 μM VX809 (2626 South Loop West, Suite 225, Houston, Tex. 77054 USA, Cat n#51565) and potentiator compounds at different concentrations (48 hours basolateral treatment and 24 hours apical treatment), prior to electrophysiological recordings. For electrophysiological recording, the human airway epithelia are mounted in the TECC heating plate for electrophysiological measurement and kept at 37° C. […]

[4] = target: T4, CFTR-G178R (Homo sapiens, UniProt P13569, G178R); experiment: YFP-halide influx assay for the CFTR-G178R; conditions: read-out: EC50 measured by YFP-halide influx assay for the CFTR-G178R
T4 construct: expressed in transfected cells
From the text: (§1) The YFP halide influx assay measures the functionality of the cystic fibrosis Transmembrane Conductance regulator (CFTR) channels. The assay is used to evaluate the capacity of compounds to increase the channel opening of existing mutant CFTR channels in the membrane. It makes use of the observation that the yellow fluorescent protein (YFP) variant YFP H148Q, I152L, F47L has its fluorescence substantially quenched by halide ions like Cl^− and I^−. (Galietta et al., 2001)
(§2) For this purpose, HEK293-cells are seeded in 96 well plates. During seeding, the cells are reverse-transfected with plasmid vectors that direct the expression of the CFTR G551D mutant and of the YFP reporter. Cells are incubated at 37° C., 5% CO2 for 24 hours so as to allow for sufficient expression of the CFTR protein.
(§3) The I^−-induced quenching of fluorescence is recorded immediately after injection of I^− for 7 seconds. The capacity of a compound to increase the channel opening is directly correlated with the decrease in fluorescence, and is expressed as (1−(fluorescence after 7 seconds (F)/fluorescence before injection (F0))) and an EC50 can be derived from a (1−F/F0) vs compound concentration plot.
(§4) Similar YHA assays were developed for other channel gating defective or channel conductance defective CFTR mutants to determine effect of compound on channel activity. Examples of mutants are G178R, G1349D, S549N, R117H, R334W. This assay is also used for additional class I CFTR mutants, including G542X, W1282X; class II mutants including N1303K, and for class III mutants including S1251N; or wild-type CFTR.

[5] = target: T1, CFTR ΔF508 mutant; experiment: YFP-halide influx assay for the CFTR-ΔF508 mutation (384 well, CFBE41o- cells, FDSS/μCell); conditions: forskolin 10.67 μM, fluorescence after 36 seconds, read-out: EC50 measured by YFP-halide influx assay for the CFTR-ΔF508
Outline: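 CFBE41o- cells were adenovirally transduced with ΔF508 CFTR and the YFP H148Q/I152L reporter. Cells were then held 24 h at 27 °C or treated 24 h at 37 °C with a CFTR modulator. Iodide-induced quench was recorded for 2 min, and EC50 was derived from 1−F/F0 at 36 s against compound concentration.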

[6] = target: T5, CFTR-G1349D (Homo sapiens, UniProt P13569, G1349D); experiment: YFP-halide influx assay for the CFTR-G1349D; conditions: CFTR-G1349D mutant; read-out: EC50 measured by YFP-halide influx assay for the CFTR-G1349D
T5 construct: expressed in transfected cells
From the text: as §1, §2, §3, §4

[7] = target: T6, CFTR-R117H (Homo sapiens, UniProt P13569, R117H); experiment: YFP-halide influx assay for the CFTR-R117H; conditions: CFTR-R117H mutant; read-out: EC50 measured by YFP-halide influx assay for the CFTR-R117H
T6 construct: expressed in transfected cells
From the text: as §1, §2, §3, §4

[8] = target: T7, CFTR-S549N (Homo sapiens, UniProt P13569, S549N); experiment: YFP-halide influx assay for the CFTR-S549N; conditions: CFTR-S549N mutant; read-out: EC50 measured by YFP-halide influx assay for the CFTR-S549N
T7 construct: expressed in transfected cells
From the text: as §1, §2, §3, §4

[9] = comparative compounds, HEK293 cells
[10] = compounds of the invention, 96 well, forskolin 10.67 μM
[11] = HEK293 cells expressing CFTR G551D and YFP reporter, forskolin 10.67 μM

T3 sequence (P13569 with tags, fused parts or gaps DEL508-508): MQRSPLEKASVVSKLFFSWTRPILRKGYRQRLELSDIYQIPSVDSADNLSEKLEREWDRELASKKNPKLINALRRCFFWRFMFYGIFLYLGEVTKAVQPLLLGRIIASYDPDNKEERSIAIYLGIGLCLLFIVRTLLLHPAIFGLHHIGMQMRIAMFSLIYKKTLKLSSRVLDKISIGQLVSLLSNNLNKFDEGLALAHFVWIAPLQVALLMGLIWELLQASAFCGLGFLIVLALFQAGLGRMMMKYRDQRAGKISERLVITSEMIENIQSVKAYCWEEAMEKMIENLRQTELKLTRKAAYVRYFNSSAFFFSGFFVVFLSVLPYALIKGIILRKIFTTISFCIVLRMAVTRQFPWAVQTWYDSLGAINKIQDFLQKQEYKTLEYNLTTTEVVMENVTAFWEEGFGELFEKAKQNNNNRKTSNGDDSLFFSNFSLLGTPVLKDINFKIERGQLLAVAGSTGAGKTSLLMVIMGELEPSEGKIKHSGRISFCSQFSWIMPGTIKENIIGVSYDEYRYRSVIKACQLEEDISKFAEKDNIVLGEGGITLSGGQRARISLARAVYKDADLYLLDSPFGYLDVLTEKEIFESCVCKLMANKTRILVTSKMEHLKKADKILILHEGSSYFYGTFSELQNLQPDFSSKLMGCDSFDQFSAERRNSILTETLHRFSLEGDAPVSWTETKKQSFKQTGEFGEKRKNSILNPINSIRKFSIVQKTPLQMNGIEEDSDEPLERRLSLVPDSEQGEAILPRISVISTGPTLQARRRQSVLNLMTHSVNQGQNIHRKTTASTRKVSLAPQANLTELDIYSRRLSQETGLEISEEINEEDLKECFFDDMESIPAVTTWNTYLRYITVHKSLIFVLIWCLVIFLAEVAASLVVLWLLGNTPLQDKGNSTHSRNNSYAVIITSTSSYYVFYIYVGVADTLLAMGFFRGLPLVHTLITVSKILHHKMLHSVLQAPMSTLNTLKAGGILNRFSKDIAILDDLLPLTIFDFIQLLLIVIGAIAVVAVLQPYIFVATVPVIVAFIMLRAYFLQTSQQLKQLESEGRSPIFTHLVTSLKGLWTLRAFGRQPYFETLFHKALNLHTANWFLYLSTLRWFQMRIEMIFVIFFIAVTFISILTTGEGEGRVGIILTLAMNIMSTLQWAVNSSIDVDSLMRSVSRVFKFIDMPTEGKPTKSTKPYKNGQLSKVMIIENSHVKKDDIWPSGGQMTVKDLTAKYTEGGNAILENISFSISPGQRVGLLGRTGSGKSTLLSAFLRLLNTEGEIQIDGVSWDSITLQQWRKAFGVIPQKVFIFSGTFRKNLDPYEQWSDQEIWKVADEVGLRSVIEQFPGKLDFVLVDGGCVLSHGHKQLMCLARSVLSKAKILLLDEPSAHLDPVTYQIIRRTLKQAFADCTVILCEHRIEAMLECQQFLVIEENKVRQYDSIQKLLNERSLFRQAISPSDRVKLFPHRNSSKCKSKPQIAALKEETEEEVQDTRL
T1 sequence (P13569 with tags, fused parts or gaps DEL508-508): as above
T2 sequence (P13569 whole entry G551D): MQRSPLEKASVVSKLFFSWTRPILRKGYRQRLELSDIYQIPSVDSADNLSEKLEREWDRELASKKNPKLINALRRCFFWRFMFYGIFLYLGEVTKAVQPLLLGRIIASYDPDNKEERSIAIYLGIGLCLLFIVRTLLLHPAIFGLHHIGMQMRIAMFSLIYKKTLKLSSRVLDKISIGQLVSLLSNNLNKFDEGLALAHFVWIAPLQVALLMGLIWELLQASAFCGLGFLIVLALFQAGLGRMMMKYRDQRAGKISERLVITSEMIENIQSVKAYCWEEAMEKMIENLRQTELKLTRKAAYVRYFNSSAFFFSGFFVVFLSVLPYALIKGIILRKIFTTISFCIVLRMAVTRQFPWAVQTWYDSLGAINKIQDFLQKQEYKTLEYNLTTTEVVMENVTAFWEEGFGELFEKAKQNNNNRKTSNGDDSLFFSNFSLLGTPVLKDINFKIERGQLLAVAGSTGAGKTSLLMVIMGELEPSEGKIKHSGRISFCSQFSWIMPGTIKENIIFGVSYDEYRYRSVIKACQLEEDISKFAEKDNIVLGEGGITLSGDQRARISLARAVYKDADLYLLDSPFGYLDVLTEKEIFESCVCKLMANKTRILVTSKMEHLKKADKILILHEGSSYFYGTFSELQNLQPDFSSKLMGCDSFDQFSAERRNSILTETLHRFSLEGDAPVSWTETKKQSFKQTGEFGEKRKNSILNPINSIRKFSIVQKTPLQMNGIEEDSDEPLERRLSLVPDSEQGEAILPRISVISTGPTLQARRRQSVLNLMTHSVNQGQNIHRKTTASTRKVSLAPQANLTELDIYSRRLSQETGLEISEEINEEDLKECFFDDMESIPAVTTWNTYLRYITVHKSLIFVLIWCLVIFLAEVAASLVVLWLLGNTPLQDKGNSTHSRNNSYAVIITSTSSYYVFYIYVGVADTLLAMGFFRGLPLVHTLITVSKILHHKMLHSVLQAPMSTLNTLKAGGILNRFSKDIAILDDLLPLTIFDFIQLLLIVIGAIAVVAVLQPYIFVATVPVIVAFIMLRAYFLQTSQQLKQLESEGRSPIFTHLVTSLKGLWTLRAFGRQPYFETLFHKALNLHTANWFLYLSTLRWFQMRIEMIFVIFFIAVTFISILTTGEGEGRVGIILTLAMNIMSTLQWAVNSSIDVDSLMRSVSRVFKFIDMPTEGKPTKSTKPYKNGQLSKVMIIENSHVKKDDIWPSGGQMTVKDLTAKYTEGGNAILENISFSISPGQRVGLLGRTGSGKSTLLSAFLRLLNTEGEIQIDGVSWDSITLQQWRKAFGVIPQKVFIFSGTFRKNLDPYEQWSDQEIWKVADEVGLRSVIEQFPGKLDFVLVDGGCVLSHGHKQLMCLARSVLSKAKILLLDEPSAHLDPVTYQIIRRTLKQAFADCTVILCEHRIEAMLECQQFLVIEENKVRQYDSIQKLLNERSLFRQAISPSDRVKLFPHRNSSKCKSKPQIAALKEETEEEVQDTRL
T5 sequence (P13569 whole entry G1349D): as the sequence (P13569 whole entry G551D) above, with D551G, G1349D counted along it
T4 sequence (P13569 whole entry G178R): as the sequence (P13569 whole entry G551D) above, with G178R, D551G counted along it
T7 sequence (P13569 whole entry S549N): as the sequence (P13569 whole entry G551D) above, with S549N, D551G counted along it
T6 sequence (P13569 whole entry R117H): as the sequence (P13569 whole entry G551D) above, with R117H, D551G counted along it

Structure (SMILES)	EC50 ([1]; comparative compounds) [µM]	ΔIsc ([3]; compound at 50 nM (Table XV)) [μA/cm^2]	ΔIsc ([3]; compound at 50 nM (Table XVI)) [μA/cm^2]	Current increase [3] [μA/cm^2]	ΔIsc ([3]; compound at 100 nM (Table XVI)) [μA/cm^2]	ΔIsc ([3]; compound at 200 nM (Table XVI)) [μA/cm^2]	activity on the CFTR protein in TECC assay (ΔISC vs DMSO baseline) [3]	EC50 [5] [µM]	other results
CN1CCc2c(sc(NC(=O)c3ccccc3O)c2C(N)=O)C1 [A, 2-(2-hydroxybenzamido)-6-methyl-4,5,6,7-tetrahydrothieno[2,3-c]pyridine-3-carboxamide, reference compound]	> 10	−0.3248	−0.3807	−0.0559	−0.5401	−0.6598	no such activity		EC50 [2, 9]: > 10 µM
NC(=O)c1c(NC(=O)c2ccccc2Cl)sc2c1CCCC2 [B, 2-(2-chlorobenzamido)-4,5,6,7-tetrahydrobenzo[b]thiophene-3-carboxamide, reference compound]	< 0.37	0.1807	0.1807	0.5055	0.4762	0.8022	no such activity		
CC1(C)Cc2c(sc(NC(=O)c3ccnn3COP(=O)(O)O)c2C(N)=O)C(C)(C)O1 [Compound 92, [5-[(3-carbamoyl-5,5,7,7-tetramethyl-4H-thieno[2,3-c]pyran-2-yl)carbamoyl]pyrazol-1-yl]methyl dihydrogen phosphate]									EC50 [4]: 0.0822 µM
CC1(C)Cc2c(sc(NC(=O)c3ccc(F)cc3O)c2C(N)=O)C(C)(C)O1 [Compound 21, 2-(4-fluoro-2-hydroxybenzamido)-5,5,7,7-tetramethyl-5,7-dihydro-4H-thieno[2,3-c]pyran-3-carboxamide]								0.00071	EC50 [1, 10]: 0.00646 µM; EC50 [2, 11]: 0.0575 µM; EC50 [3]: 0.0163 µM
CC1(C)Cc2c(sc(NC(=O)C(C)(C)O)c2C(N)=O)C(C)(C)O1 [Compound 6, 2-(2-hydroxy-2-methylpropanamido)-5,5,7,7-tetramethyl-5,7-dihydro-4H-thieno[2,3-c]pyran-3-carboxamide]								0.0162	EC50 [1, 10]: 0.0758 µM; EC50 [3]: 0.165 µM and 0.0609 µM
CC1(C)Cc2c(sc(NC(=O)c3n[nH]cc3C3COCCO3)c2C(N)=O)C(C)(C)O1 (stereo not drawn) [Compound 95, N-(3-carbamoyl-5,5,7,7-tetramethyl-4H-thieno[2,3-c]pyran-2-yl)-4-(1,4-dioxan-2-yl)-1H-pyrazole-3-carboxamide]								0.0245	EC50 [6]: 0.0814 µM; EC50 [7]: 0.106 µM; EC50 [8]: 0.291 µM; EC50 [2, 11]: 1.06 µM
NC(=O)c1c(NC(=O)c2cc[nH]n2)sc2c1CCOC2 [E, N-(3-carbamoyl-5,7-dihydro-4H-thieno[2,3-c]pyran-2-yl)-1H-pyrazole-3-carboxamide, reference compound]	0.479	0.1663	0.1663	0.4911	−0.0318	0.5241	no such activity		EC50 [2, 9]: 2.9 µM
